# According to US9988343B2, “Inhibitors of histone deacetylase” (Dana-Farber Cancer Institute, Inc., priority 2013, dated 2018):
# Legend:
# HDAC6 = molecular target: T1, HDAC6 (Homo sapiens, UniProt Q9UBN7); test: HDAC6 inhibitory activity (IC50); type: biochemical; settings: Table 2; read-out: HDAC6
# T1 sequence (Q9UBN7 1-1215): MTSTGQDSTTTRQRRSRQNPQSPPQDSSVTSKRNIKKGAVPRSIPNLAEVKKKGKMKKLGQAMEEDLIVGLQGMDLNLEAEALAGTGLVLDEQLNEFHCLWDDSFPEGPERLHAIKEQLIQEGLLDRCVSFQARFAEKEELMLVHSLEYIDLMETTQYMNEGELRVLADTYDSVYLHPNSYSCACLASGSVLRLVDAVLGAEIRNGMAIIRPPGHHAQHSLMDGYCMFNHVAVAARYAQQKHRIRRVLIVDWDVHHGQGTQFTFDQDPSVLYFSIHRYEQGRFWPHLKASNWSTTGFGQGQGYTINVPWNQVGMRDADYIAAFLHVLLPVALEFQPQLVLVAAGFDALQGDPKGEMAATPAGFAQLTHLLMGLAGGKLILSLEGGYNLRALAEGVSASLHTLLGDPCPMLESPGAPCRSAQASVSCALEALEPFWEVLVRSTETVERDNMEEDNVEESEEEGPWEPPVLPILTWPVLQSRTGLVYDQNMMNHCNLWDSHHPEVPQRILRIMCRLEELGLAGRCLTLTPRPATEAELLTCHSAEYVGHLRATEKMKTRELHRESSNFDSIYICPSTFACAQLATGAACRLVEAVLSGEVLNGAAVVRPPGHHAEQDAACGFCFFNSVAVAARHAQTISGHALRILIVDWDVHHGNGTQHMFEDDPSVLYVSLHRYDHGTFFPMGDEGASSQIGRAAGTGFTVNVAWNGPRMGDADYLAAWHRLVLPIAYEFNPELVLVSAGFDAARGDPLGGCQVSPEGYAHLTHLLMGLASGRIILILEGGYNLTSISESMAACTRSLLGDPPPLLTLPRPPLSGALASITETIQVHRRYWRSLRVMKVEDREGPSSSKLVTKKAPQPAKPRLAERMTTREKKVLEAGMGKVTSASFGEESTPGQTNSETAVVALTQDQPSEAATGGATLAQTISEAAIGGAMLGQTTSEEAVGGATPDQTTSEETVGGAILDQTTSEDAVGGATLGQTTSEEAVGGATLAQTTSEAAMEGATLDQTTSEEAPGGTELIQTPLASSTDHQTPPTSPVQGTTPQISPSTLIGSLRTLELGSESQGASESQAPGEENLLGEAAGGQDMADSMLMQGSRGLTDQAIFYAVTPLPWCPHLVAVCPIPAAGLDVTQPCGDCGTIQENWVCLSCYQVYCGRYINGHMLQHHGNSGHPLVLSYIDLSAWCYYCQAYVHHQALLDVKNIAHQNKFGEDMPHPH
# Procedure: (§1) HDAC inhibitor compounds designed and synthesized in accordance with the present invention were tested for their inhibitor activity against several different HDAC isoforms.
# HDAC2 = HDAC2 (Homo sapiens, UniProt Q92769); test: HDAC2 inhibitory activity (IC50); type: biochemical; settings: Table 2; read-out: HDAC2
# Procedure: as §1
# HDAC3 = HDAC3 (Homo sapiens, UniProt O15379); test: HDAC3 inhibitory activity (IC50); type: biochemical; settings: Table 2; read-out: HDAC3
# Procedure: as §1
# HDAC1 = HDAC1 (Homo sapiens, UniProt Q13547); test: HDAC1 inhibitory activity (IC50); type: biochemical; settings: Table 2; read-out: HDAC1
# Procedure: as §1
# MM.1S cells = test: Immunoblot of histone and α-tubulin acetylation in MM.1S cells; type: cell-based, human; settings: 12 h, Compound 10 10 and 20 μM
# pSTAT3 (Tyr705) = test: Immunoblot of STAT3 phosphorylation in MM cells; type: cell-based, human
# Procedure: MM cells were harvested and lysed using sodium dodecyl sulfate-polyacrylamide gel electrophoresis (SDS-PAGE) sample buffer containing 60 mM Tris-HCl, pH 6.8, 2% SDS, 10% glycerol, 0.005% bromophenol blue, 5 mM ethylenediaminetetraacetic acid, 5 mM NaF, 2 mM […], 1 mM phenylmethylsulfonyl fluoride (PMSF), 5 μg/mL leupeptin, and 5 μg/mL aprotinin; and then heated at 100° C. for 5 min. After the determination of protein concentration using DC protein assay (Bio-Rad, Hercules, Calif.), β-mercaptoethanol (β-ME) was added to the whole-cell lysates to a 2% final β-ME concentration. The whole-cell lysates were subjected to SDS-PAGE, transferred to nitrocellulose membranes (Bio-Rad, Hercules, Calif.) or polyvinylidene fluoride membranes (Millipore, Billerica, Mass.), and immunoblotted with anti-histone H3, -HDAC1, -HDAC2, -HDAC3, -Acetyl-histone H2A (Lysine 5) (Ac-H2AK5), -Acetyl-histone H2B (lysine 5) (Ac-H2 BK5), -Acetyl-histone H3 (lysine 9) (Ac-H3K9), -Acetyl-histone H4 (lysine 8) (Ac-H4K8), -glyceraldehyde-3-phosphate dehydrogenase (GAPDH), -poly (ADP-ribose) polymerase (PARP), -caspase-3, -caspase-8, -caspase-9, -Signal transducers and activators of transcription 3 (STAT3), -phospho-STAT3 (pSTAT3) (tyrosine 705), -pSTAT3 (serine 727), -p21, -Janus kinase 2 (JAK2), -acetylated-Lysine (Ac-K), and anti-phosphorylated-tyrosine antibodies (Abs; Cell Signaling Technology, Beverly, Mass.).
# MM.1S, U266, and INA6 cells were cultured with DMSO control or LBH589 (50 and 100 nM) for 8 h.
# MM.1S cells pretreated with or without 50 nM LBH589 for 8 hours were then treated with IL-6 (10 ng/mL) or BMSC culture supernatants (#1 and #2) for 15 minutes. Whole cell lysates were subjected to immunoblotting with anti-pSTAT3 (Tyr705) and STAT3 Abs.
# In addition, INA-6 cells were cultured with DMSO control, LBH589 (50 nM), TSA (1 μM) or SAHA (2 μM) for 8 hours. Whole cell lysates were subjected to immunoblotting with anti-pSTAT3 (Tyr705), STAT3, and GAPDH Abs.
# Whole cell lysates were subjected to immunoblotting with anti-pSTAT3 (Tyr705), -STAT3, -pERK1/2 (Thr202/204), and -ERK1/2 Abs (FIG. 6G).
# See, e.g., Hideshima et al. Blood. 2006, 107:4053-4062. Since bortezomib upregulates activated STAT3 in head and neck squamous cell carcinoma (see, e.g., Li et al. Mol Cancer Ther 2009. 8:2211-2220), experiments were conducted to test whether bortezomib enhances p-STAT3 in MM cells. RPMI8226 cells were infected with Luc, HDAC1 (sh1), HDAC2 (sh1) or HDAC3 (sh1) shRNAs and then treated with or without bortezomib (5 nM) for 6 hours. Whole cell lysates were subjected to immunoblotting with anti-STAT3, -pSTAT3 (Tyr705), -pERK1/2 (Thr202/204) and -ERK1/2 Abs.
# MM cell lines = test: Cell growth inhibition assay (MTT) in MM cell lines; type: cell-based, human; settings: MM cell lines, 48 hours, MTT (FIG. 1A)
# Procedure: To measure proliferation of MM cells, the rate of DNA synthesis was measured by ^3[H]-thymidine (Perkin-Elmer) uptake.
# The growth inhibitory effect of Merck60 (HDACL, 2 inhibitor previously reported as compound #60 by Method et al. Bioorg. Med. Chem. Lett. 2008. 18(3):973-8) versus MS275 (HDAC1, 2, 3 inhibitor) was examined in MM cell lines using MTT assay. MM cells were cultured with Merck60 (left panel) or MS275 (right panel) for 48 hours. Cell growth was assessed by MTT assay. All experiments were performed 3 times in quadruplicate. Data represent mean±SD.
# Cell growth was assessed by MTT assay. All experiments were performed 3 times in quadruplicate. Data represent mean±SD.
# RPMI8226 cells = test: Combination with bortezomib, MTT cytotoxicity, combination index; type: cell-based, human; settings: RPMI8226, MTT, 24 h
# Procedure: The combined effect of drugs was analyzed by isobologram analysis using the Compusyn software program (ComboSyn, Inc.); a combination index (CI)<1 is indicative of a synergistic effect.
# All experiments were performed 3 times in quadruplicate. Data represent mean±SD (FIG. 7D).
# [1] = INA-6 cells, 8 hours, TSA 1 μM, SAHA 2 μM (FIG. 4C)
# HDAC1, sequence (Q13547 whole entry): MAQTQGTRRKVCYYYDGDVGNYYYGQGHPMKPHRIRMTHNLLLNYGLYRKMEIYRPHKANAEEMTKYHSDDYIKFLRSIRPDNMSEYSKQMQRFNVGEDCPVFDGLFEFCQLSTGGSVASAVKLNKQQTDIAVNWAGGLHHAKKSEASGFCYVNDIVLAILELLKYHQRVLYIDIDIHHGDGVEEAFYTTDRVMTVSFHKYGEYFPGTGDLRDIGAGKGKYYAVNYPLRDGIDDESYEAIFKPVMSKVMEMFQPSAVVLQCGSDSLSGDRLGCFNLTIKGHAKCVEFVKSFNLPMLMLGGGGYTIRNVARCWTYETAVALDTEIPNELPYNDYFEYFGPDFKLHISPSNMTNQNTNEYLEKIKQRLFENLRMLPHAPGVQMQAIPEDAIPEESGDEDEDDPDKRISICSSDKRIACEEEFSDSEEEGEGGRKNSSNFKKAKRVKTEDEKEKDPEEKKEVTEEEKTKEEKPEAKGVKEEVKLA
# HDAC3, sequence (O15379 whole entry): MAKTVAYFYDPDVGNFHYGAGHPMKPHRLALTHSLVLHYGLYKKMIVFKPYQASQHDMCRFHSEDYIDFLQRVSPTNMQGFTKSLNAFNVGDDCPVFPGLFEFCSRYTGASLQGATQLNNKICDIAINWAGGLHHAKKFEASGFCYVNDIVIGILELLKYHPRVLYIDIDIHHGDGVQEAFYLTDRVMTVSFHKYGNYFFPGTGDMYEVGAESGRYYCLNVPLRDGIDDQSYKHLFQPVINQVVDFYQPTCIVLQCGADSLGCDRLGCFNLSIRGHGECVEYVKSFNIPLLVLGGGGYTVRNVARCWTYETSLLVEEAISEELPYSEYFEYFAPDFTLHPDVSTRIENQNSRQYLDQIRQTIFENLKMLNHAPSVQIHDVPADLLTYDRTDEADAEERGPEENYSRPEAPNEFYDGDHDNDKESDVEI
# HDAC3, sequence (Q9Y618 395-489 partner limits assumed): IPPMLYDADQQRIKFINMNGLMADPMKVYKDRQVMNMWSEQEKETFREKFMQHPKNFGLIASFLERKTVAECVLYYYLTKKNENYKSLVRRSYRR
# HDAC2, sequence (Q92769 whole entry): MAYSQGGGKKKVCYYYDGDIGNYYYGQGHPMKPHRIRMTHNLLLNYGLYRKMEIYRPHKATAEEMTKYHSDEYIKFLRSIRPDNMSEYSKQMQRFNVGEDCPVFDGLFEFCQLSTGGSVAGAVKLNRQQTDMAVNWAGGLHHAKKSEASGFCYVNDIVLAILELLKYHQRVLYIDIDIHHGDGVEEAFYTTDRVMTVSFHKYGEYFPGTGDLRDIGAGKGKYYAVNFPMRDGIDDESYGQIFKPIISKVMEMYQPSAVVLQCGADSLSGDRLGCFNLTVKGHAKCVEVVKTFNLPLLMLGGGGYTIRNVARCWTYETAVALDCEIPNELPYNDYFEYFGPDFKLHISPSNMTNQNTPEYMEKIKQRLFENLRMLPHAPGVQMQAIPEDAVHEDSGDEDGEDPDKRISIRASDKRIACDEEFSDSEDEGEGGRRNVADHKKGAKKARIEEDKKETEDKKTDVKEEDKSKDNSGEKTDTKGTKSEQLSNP
IC50 (HDAC6) [nM],IC50 (HDAC2) [nM],IC50 (HDAC3) [nM],IC50 (HDAC1) [nM],Structure (SMILES),also measured
74300,–,–,–,Nc1ccccc1NC(=O)c1cccnc1 [Compound 1],–
> 100000,2340,368,2820,Nc1ccccc1NC(=O)c1ccncc1 [Compound 2],–
> 100000,2360,346,–,Nc1ccccc1NC(=O)c1ccccn1 [Compound 3],–
> 100000,3670,3320,10500,O=C(Nc1ccccc1O)c1cccnc1 [Compound 5],–
> 100000,1910,1990,5770,O=C(Nc1ccccc1O)c1ccncc1 [Compound 6],–
> 100000,4110,3620,12400,O=C(Nc1ccccc1O)c1ccccn1 [Compound 7],–
> 100000,1210,169,735,Nc1ccccc1NC(=O)c1cnc(Nc2ccccc2)nc1 [Compound 8],–
> 100000,2590,280,3280,Nc1ccccc1NC(=O)c1ccc(Cl)nc1 [Compound 9],–
> 100000,60.4,843,< 10,CC(=O)Nc1ccc(C(=O)Nc2cc(-c3ccccc3)ccc2N)cc1 [Compound 11],–
> 100000,760,70.2,1230,CC(=O)Nc1ccc(C(=O)Nc2ccc(F)cc2N)cc1 [Compound 12],–
> 100000,13400,1960,27000,Nc1cc(F)ccc1NC(=O)c1cccnc1 [Compound 13],–
> 100000,2320,296,4120,Nc1cc(F)ccc1NC(=O)c1cnccn1 [Compound 14],–
> 100000,5520,2350,13700,O=C(Nc1ccc(F)cc1O)c1cccnc1 [Compound 15],–
> 100000,1360,213,1390,Cc1ccc(C(=O)Nc2ccccc2N)cn1 [Compound 17],–
–,–,–,–,"Cc1[nH]c2ccccc2c1CCNCc1ccc(/C=C/C(=O)NO)cc1 [LBH589, reference compound]","histone acetylation (MM.1S cells; LBH589 50 and 100 nM (FIG. 6F left)): significantly triggered both histone and α-tubulin acetylation; α-tubulin acetylation (biomarker of HDAC6 inhibition) (MM.1S cells; LBH589 50 and 100 nM (FIG. 6F right)): significantly triggered both histone and α-tubulin acetylation; P-STAT3 upregulated by IL-6 or BMSC culture supernatants (pSTAT3 (Tyr705); MM.1S, 50 nM pretreatment 8 hours, IL-6 10 ng/mL or supernatants 15 minutes (FIG. 4B)): blocked; p-STAT3 (pSTAT3 (Tyr705); MM.1S, U266, INA-6 cells, 50 and 100 nM, 8 h (FIG. 4A)): significantly inhibited"
–,–,–,–,"CC(=O)Nc1ccc(C(=O)Nc2cc(-c3cccs3)ccc2N)cc1 [Merck60, 4-acetamido-N-(2-amino-5-(thiophen-2-yl)phenyl)benzamide]",MM cell growth inhibition (MM cell lines): only a modest growth inhibition effect; CI (combination index) (RPMI8226 cells; HDAC inhibitor 1 μM + bortezomib 2 nM): 1.95; CI (combination index) (RPMI8226 cells; HDAC inhibitor 1 μM + bortezomib 3 nM): 1.06; CI (combination index) (RPMI8226 cells; HDAC inhibitor 1 μM + bortezomib 4 nM): 1.19; CI (combination index) (RPMI8226 cells; HDAC inhibitor 2 μM + bortezomib 2 nM): 1.54; CI (combination index) (RPMI8226 cells; HDAC inhibitor 2 μM + bortezomib 3 nM): 1.21; CI (combination index) (RPMI8226 cells; HDAC inhibitor 2 μM + bortezomib 4 nM): 1.34; CI (combination index) (RPMI8226 cells; HDAC inhibitor 3 μM + bortezomib 2 nM): 1.45; CI (combination index) (RPMI8226 cells; HDAC inhibitor 3 μM + bortezomib 3 nM): 1.4; CI (combination index) (RPMI8226 cells; HDAC inhibitor 3 μM + bortezomib 4 nM): 1.55
–,–,–,–,"O=C(CCCCCCC(=O)Nc1ccccc1)NO [SAHA, suberoylanilide hydroxamic acid]",p-STAT3 (pSTAT3 (Tyr705); [1]): downregulated p-STAT3
–,–,–,–,CC(/C=C/C(=O)NO)=C\[C@@H](C)C(=O)c1ccc(N(C)C)cc1 [TSA],p-STAT3 (pSTAT3 (Tyr705); [1]): downregulated p-STAT3
